#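 Grown in 96-well plates, cells were treated for 48 hours with each compound at five concentrations. Insufficient inhibition: endpoint recorded as highest concentration tested. TGI: concentration producing complete growth inhibition.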
# Key:
# Experiment in all cases: growth of human tumour cells (NCI), 48 h
# [1] = tested on: HS 578T breast
# [2] = tested on: U251 CNS
# [3] = tested on: 786-0 renal
# [4] = tested on: SNB-75 CNS
# [5] = tested on: HCC-2998 colon
# [6] = tested on: A498 renal
# [7] = tested on: HL-60(TB) leukemia
# [8] = tested on: M14 melanoma
# [9] = tested on: UO-31 renal
# [10] = tested on: NCI-H23 lung
# [11] = tested on: MCF7 breast
# [12] = tested on: T-47D breast
# [13] = tested on: HCT-116 colon
# [14] = tested on: K-562 leukemia
# [15] = tested on: TK-10 renal
# [16] = tested on: SF-539 CNS
# [17] = tested on: MDA-MB-435
# [18] = tested on: LOX IMVI melanoma
# [19] = tested on: A549 NSCLC
# [20] = tested on: NCI-H226 lung
# [21] = tested on: HCT-15 colon
# [22] = tested on: SN12C renal
# [23] = tested on: HT29 colon
# [24] = tested on: SK-MEL-2 melanoma
# [25] = tested on: COLO 205 colon
# [26] = tested on: HOP-62 NSCLC
# [27] = tested on: RXF 393 renal
# [28] = tested on: SK-OV-3 ovarian
# [29] = tested on: MOLT-4 leukemia
# [30] = tested on: CAKI-1 renal
# [31] = tested on: RPMI-8226 leukemia
# [32] = tested on: SW-620 colon
# [33] = tested on: SK-MEL-28 melanoma
# [34] = tested on: SNB-19 CNS
# [35] = tested on: NCI-H522 lung
# [36] = tested on: EKVX NSCLC
# [37] = tested on: MDA-MB-231 breast
# [38] = tested on: OVCAR-8 ovarian
# [39] = tested on: OVCAR-5 ovarian
# [40] = tested on: NCI/ADR-RES ovarian
# [41] = tested on: KM12 colon
# [42] = tested on: CCRF-CEM leukemia
# [43] = tested on: UACC-62 melanoma
# [44] = tested on: OVCAR-4 ovarian
# [45] = tested on: BT-549 breast
# [46] = tested on: SF-268 CNS
# [47] = tested on: ACHN renal
# [48] = tested on: MDA-N
# [49] = tested on: MALME-3M melanoma
# [50] = tested on: DU-145 prostate
# [51] = tested on: SF-295 CNS
# [52] = tested on: NCI-H460 lung
# [53] = tested on: IGROV1 ovarian
# [54] = tested on: PC-3 prostate
# [55] = tested on: UACC-257 melanoma
# [56] = tested on: SK-MEL-5 melanoma
# [57] = tested on: OVCAR-3 ovarian
# [58] = tested on: SR leukemia
smiles,measurement,setting,value
COc1cc(C2c3cc4c(cc3OC(Nc3ccccc3)C2C)OCO4)cc(OC)c1OC (stereo unspecified),TGI,[1],> 78.5 µM
same,TGI,[2],21.3 µM
same,TGI,[3],> 100 µM
same,TGI,[4],99.2 µM
same,TGI,[5],> 26.6 µM
same,TGI,[6],1.69 µM
same,TGI,[7],0.593 µM
same,TGI,[8],> 86.5 µM
same,TGI,[9],> 100 µM
same,TGI,[10],> 100 µM
same,TGI,[11],> 100 µM
same,TGI,[12],> 100 µM
same,TGI,[13],> 33 µM
same,TGI,[14],> 100 µM
same,TGI,[15],> 100 µM
same,TGI,[16],0.697 µM
same,TGI,[17],0.527 µM
same,TGI,[18],> 100 µM
same,TGI,[19],> 100 µM
same,TGI,[20],12.8 µM
same,TGI,[21],> 21.6 µM
same,TGI,[22],> 100 µM
same,TGI,[23],> 100 µM
same,TGI,[24],> 100 µM
same,TGI,[25],14.5 µM
same,TGI,[26],9.89 µM
same,TGI,[27],> 100 µM
same,TGI,[28],> 100 µM
same,TGI,[29],8.28 µM
same,TGI,[30],> 100 µM
same,TGI,[31],> 100 µM
same,TGI,[32],> 100 µM
same,TGI,[33],> 100 µM
same,TGI,[34],> 100 µM
same,TGI,[35],2.04 µM
same,TGI,[36],> 88.5 µM
same,TGI,[37],> 52.4 µM
same,TGI,[38],> 31.6 µM
same,TGI,[39],> 100 µM
same,TGI,[40],> 100 µM
same,TGI,[41],> 100 µM
same,TGI,[42],> 19.9 µM
same,TGI,[43],> 100 µM
same,TGI,[44],> 100 µM
same,TGI,[45],> 90.9 µM
same,TGI,[46],> 100 µM
same,TGI,[47],> 61.4 µM
same,TGI,[48],0.784 µM
same,TGI,[49],> 100 µM
same,TGI,[50],> 100 µM
same,TGI,[51],3.52 µM
same,TGI,[52],> 100 µM
same,TGI,[53],> 100 µM
same,TGI,[54],> 100 µM
same,TGI,[55],> 86.2 µM
O=c1cc(CBr)c2ccc(O)cc2o1,TGI,[1],> 100 µM
same,TGI,[2],> 100 µM
same,TGI,[3],> 100 µM
same,TGI,[4],> 100 µM
same,TGI,[5],> 100 µM
same,TGI,[6],> 100 µM
same,TGI,[7],> 100 µM
same,TGI,[8],> 100 µM
same,TGI,[9],> 100 µM
same,TGI,[10],> 100 µM
same,TGI,[11],> 100 µM
same,TGI,[13],> 100 µM
same,TGI,[14],> 100 µM
same,TGI,[15],> 100 µM
same,TGI,[16],> 100 µM
same,TGI,[17],> 100 µM
same,TGI,[18],> 100 µM
same,TGI,[19],> 100 µM
same,TGI,[20],> 100 µM
same,TGI,[21],> 100 µM
same,TGI,[22],> 100 µM
same,TGI,[23],> 100 µM
same,TGI,[24],> 100 µM
same,TGI,[25],> 100 µM
same,TGI,[26],50.3 µM
same,TGI,[27],> 100 µM
same,TGI,[28],> 100 µM
same,TGI,[29],> 100 µM
same,TGI,[30],> 100 µM
same,TGI,[31],> 100 µM
same,TGI,[32],> 100 µM
same,TGI,[56],> 100 µM
same,TGI,[33],> 100 µM
same,TGI,[34],> 100 µM
same,TGI,[35],> 100 µM
same,TGI,[36],91.1 µM
same,TGI,[37],> 100 µM
same,TGI,[38],> 100 µM
same,TGI,[39],> 100 µM
same,TGI,[40],> 100 µM
same,TGI,[41],> 100 µM
same,TGI,[57],> 100 µM
same,TGI,[42],> 100 µM
same,TGI,[43],> 100 µM
same,TGI,[58],> 100 µM
same,TGI,[45],77 µM
same,TGI,[46],> 100 µM
same,TGI,[47],> 100 µM
same,TGI,[48],> 100 µM
same,TGI,[49],> 100 µM
same,TGI,[50],> 100 µM
same,TGI,[51],> 100 µM
same,TGI,[52],> 100 µM
same,TGI,[53],> 100 µM
same,TGI,[54],> 100 µM
same,TGI,[55],> 100 µM
